Test results taken from ChEMBL document CHEMBL3045309, “Synthesis and cardiovascular activity of difluro-substituted hexahydroquinoline” (2008).

Legend:
[1] = test system: Thoracic artery; test: Inhibition of potassium chloride-induced contraction in Rattus norvegicus albino (rat) thoracic artery at 10^-5 mol/l after 10 min; assay type: functional
[2] = test system: Ileum; test: Inhibition of barium chloride-induced contraction inRattus norvegicus albino (rat) ileum at 10^-5 mol/l after 10 min; assay type: functional

Row | Compound | inhibition at 10 µM [1] | inhibition at 10 µM [2]
1 | CCN(CC)C(=O)C1=C(C)NC2=C(C(=O)C(C)(C)CC2)C1c1cccc(F)c1F (stereo unspecified) | 37% | 54.2%
2 | CCN(CC)C(=O)C1=C(C)NC2=C(C(=O)CC(C)(C)C2)C1c1cccc(F)c1F (stereo unspecified) | 31.5% | 51.3%
3 | COC(=O)C1=C(C)NC(C)=C(C(=O)OCCN(C)Cc2ccccc2)C1c1cccc([N+](=O)[O-])c1 (stereo unspecified) [NICARDIPINE] | 15.9% | 70%
4 | CCOC(=O)C1=C(C)NC2=C(C(=O)C(C)(C)CC2)C1c1cc(F)ccc1F (stereo unspecified) | 21.4% | 86.8%
5 | COC(=O)C1=C(C)NC2=C(C(=O)CC(C)(C)C2)C1c1c(F)cccc1F (stereo unspecified) |  | 74.6%
6 | COC(=O)C1=C(C)NC2=C(C(=O)C(C)(C)CC2)C1c1c(F)cccc1F (stereo unspecified) | 23.6% | 79.4%
